Several values for one entry are separate records, joined by “and”; a condition that tells them apart may be missing. Equal values may be shown once.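 Exposure lasted 48 hours, with cells grown in 96-well plates and compounds tested at five concentrations. GI50 is the concentration that inhibits growth by half. TGI is the concentration that stops growth completely.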

In one assay the test system is KM12 colon. As to the kind of experiment: NCI-60 cell line screen, 48 h.
Take `COC(=O)CC(=O)C[P+](c1ccccc1)(c1ccccc1)c1ccccc1`: the TGI is over 218 µM.

`CCCCN(CCCC)C(=O)C(=O)C(C#N)c1ccc(C)cc1` (stereo unspecified) returned a TGI of over 100 µM.

With `Cc1ccc(S(=O)(=O)C(CC(=O)N2CCCC2)C(=O)c2ccccc2)cc1` (stereo unspecified), the TGI was over 100 µM.

`CC1(C)CC(/C=C2/OC(=O)c3ccccc32)=C(C#N)C(=O)O1`: the TGI was over 100 µM.

Compound `Cc1nc2c(nc1Cl)nc(Oc1ccc(Cl)cc1)c1ccccc12` showed a TGI of over 100 µM.

In the case of `CC(=O)Nc1ccccc1Sc1ccccc1`, the TGI is over 100 µM.

For the compound `COC(=O)C[C@H]1CCC2(OCCO2)[C@]1(C)C(=O)OC`, the TGI was over 100 µM.

`CCOc1ccc2c(c1)[n+]([O-])c(S(=O)(=O)c1ccc(C)cc1)c(N)[n+]2[O-]` displayed a TGI of over 100 µM.

As to `CC12CC[C@@H](C(C)(C)O)C1[C@@H](O)CC1(C)C2CCC2[C@@]3(C)CC[C@H](O)C(C)(C)C3C(O)C[C@]21C` (stereo partly specified), the TGI is 38.1 µM.

The compound `CCOC(=O)NC(=O)c1cn(C2OC(COC(=O)CCCCCCCCC(=O)OCC3OC(n4cc(C(=O)NC(=O)OCC)c(=O)[nH]c4=O)C(O)C3O)C(O)C2O)c(=O)[nH]c1=O` (stereo unspecified) had a TGI of over 100 µM.

Regarding `Cc1ccc(C)c(NC(=O)CC/C(=N\NC(=O)C(=O)NN)C(C)C(=O)c2ccc(O)cc2)c1` (stereo unspecified), the TGI is over 100 µM.

For the compound `N=C1CSC2=NC3=C(CCC/C3=C\c3ccccc3)C(c3ccccc3)N12` (stereo unspecified), the TGI is 13 µM.

On to `COc1ccc(CNc2cc(OC)c(OC)c(OC)c2)cc1`, for which the TGI was over 41.7 µM.

In the case of `COc1ccccc1C1C(C(=O)Nc2ccccc2)=C(C)NC(C)=C1C(=O)Nc1ccccc1`, the TGI is over 100 µM.

`OCc1ccc2[n+](c1)CCC1c3ccccc3NC21` (stereo unspecified) came in with a TGI of over 300 µM.

With `COc1cccc(-c2cc(=O)c3cc(N(C)C)ccc3[nH]2)c1`, the GI50 was 0.0334 µM and 0.0159 µM; the TGI was 1.06 µM and 0.119 µM and 0.766 µM.

In the case of `CCCCCCCCCCCC(=O)CC(=O)c1c(O)cccc1O`, the TGI worked out at 31.2 µM.

With `CN(C(=O)C12C3C4C1C1C2C3C41C(=O)C(C)(C)C)C(C)(C)C` (stereo unspecified), the TGI is over 100 µM.

In the case of `Cc1cc2c(cc1C)[n+](=O)c(C(=O)CC(=O)C(=O)Nc1c(C(C)C)cccc1C(C)C)c(C)n2[O-]`, the TGI was over 100 µM.

The compound `COc1ccc2cc1Oc1ccc(cc1)CC1c3cc(c(OC)cc3CCN1C)Oc1c3c(cc4c1C(C2)N(C)CC4)OCO3` (stereo unspecified) showed a TGI of 27.2 µM.

Compound `COc1ccc(OC)c(NC(=O)C(=O)C(C(C)=O)c2nc3ccc(Cl)cc3[nH]c2=O)c1` (stereo unspecified) displayed a TGI of over 50 µM.

Regarding `N#CC(C(=N/O)/C(=N/O)C(C#N)c1ccc(Cl)cc1)c1ccc(Cl)cc1` (stereo unspecified), the TGI is over 100 µM.

Another assay relates to SK-MEL-5 melanoma. As to the kind of experiment: NCI-60 cell line screen, 48 h.
With `CC1(Cl)C(=O)NC(=O)N(C2CC(N=[N+]=[N-])C(CO)O2)C1N=[N+]=[N-]` (stereo unspecified), the TGI was over 100 µM.

In turn, `COc1ccc2ccc3c(c2c1)CN1CCc2cc(OC)c(OC)cc2C1C3` (stereo unspecified) gave a TGI of over 100 µM.

Consider `OCCC1(O)CCC(O)CC1` (stereo unspecified), for which the TGI is over 100 µM.

Compound `CCCCNC1=C(C(=O)OCC)C(=O)CO1` gave a TGI of over 100 µM.

In the case of `CC(C)CC(=O)[O-].CC(C)CC(=O)[O-].N.N.N.N.[Co+3].[O-][Cl+3]([O-])([O-])[O-]`, the GI50 is over 100 µM and the TGI is over 100 µM.

With `COC(=O)CC(=O)C[P+](c1ccccc1)(c1ccccc1)c1ccccc1`, the TGI was over 218 µM.

As for `CCCCN(CCCC)C(=O)C(=O)C(C#N)c1ccc(C)cc1` (stereo unspecified), the TGI is over 100 µM.

`Cc1ccc(S(=O)(=O)C(CC(=O)N2CCCC2)C(=O)c2ccccc2)cc1` (stereo unspecified) registered a TGI of over 100 µM.

On to `CC1(C)CC(/C=C2/OC(=O)c3ccccc32)=C(C#N)C(=O)O1`, for which the TGI was over 100 µM.

Turning to `Cc1nc2c(nc1Cl)nc(Oc1ccc(Cl)cc1)c1ccccc12`, the TGI is over 100 µM.

Turning to `CC(=O)Nc1ccccc1Sc1ccccc1`, the TGI is over 100 µM.

Compound `COC(=O)C[C@H]1CCC2(OCCO2)[C@]1(C)C(=O)OC` yielded a TGI of over 100 µM.

In turn, `CCCCCCCCCC[C@@H](O)[C@@H]1CC[C@H]([C@H]2CC[C@@H]([C@@H](O)CCCCCCCCCC[C@H]3CC(CC(C)=O)C(=O)O3)O2)O1` (stereo partly specified) had a TGI of 10.7 µM.

For `CCOc1ccc2c(c1)[n+]([O-])c(S(=O)(=O)c1ccc(C)cc1)c(N)[n+]2[O-]`, the TGI was over 100 µM.

`CC12CC[C@@H](C(C)(C)O)C1[C@@H](O)CC1(C)C2CCC2[C@@]3(C)CC[C@H](O)C(C)(C)C3C(O)C[C@]21C` (stereo partly specified) registered a TGI of 21.3 µM.

On to `CCOC(=O)NC(=O)c1cn(C2OC(COC(=O)CCCCCCCCC(=O)OCC3OC(n4cc(C(=O)NC(=O)OCC)c(=O)[nH]c4=O)C(O)C3O)C(O)C2O)c(=O)[nH]c1=O` (stereo unspecified), for which the TGI is over 100 µM.

The compound `Cc1ccc(C)c(NC(=O)CC/C(=N\NC(=O)C(=O)NN)C(C)C(=O)c2ccc(O)cc2)c1` (stereo unspecified) had a TGI of over 100 µM.

As for `N=C1CSC2=NC3=C(CCC/C3=C\c3ccccc3)C(c3ccccc3)N12` (stereo unspecified), the TGI turned out to be 19.3 µM.

Regarding `COc1ccc(CNc2cc(OC)c(OC)c(OC)c2)cc1`, the TGI was 14.6 µM.

In the case of `COc1ccccc1C1C(C(=O)Nc2ccccc2)=C(C)NC(C)=C1C(=O)Nc1ccccc1`, the TGI is over 100 µM.

With `OCc1ccc2[n+](c1)CCC1c3ccccc3NC21` (stereo unspecified), the TGI was over 300 µM.

For `COc1cccc(-c2cc(=O)c3cc(N(C)C)ccc3[nH]2)c1`, the GI50 was 0.0125 µM and 0.00356 µM.

As to `CCCCCCCCCCCC(=O)CC(=O)c1c(O)cccc1O`, the TGI was found to be 35.6 µM.

In turn, `CN(C(=O)C12C3C4C1C1C2C3C41C(=O)C(C)(C)C)C(C)(C)C` (stereo unspecified) displayed a TGI of over 100 µM.

Compound `Cc1cc2c(cc1C)[n+](=O)c(C(=O)CC(=O)C(=O)Nc1c(C(C)C)cccc1C(C)C)c(C)n2[O-]` showed a TGI of over 100 µM.

`COc1ccc2cc1Oc1ccc(cc1)CC1c3cc(c(OC)cc3CCN1C)Oc1c3c(cc4c1C(C2)N(C)CC4)OCO3` (stereo unspecified): the TGI worked out at 25.1 µM.

For the compound `COc1ccc(OC)c(NC(=O)C(=O)C(C(C)=O)c2nc3ccc(Cl)cc3[nH]c2=O)c1` (stereo unspecified), the TGI is over 50 µM.

For the next assay, the system named is SNB-75 CNS. As to the kind of experiment: NCI-60 cell line screen, 48 h.
In turn, `CC1(Cl)C(=O)NC(=O)N(C2CC(N=[N+]=[N-])C(CO)O2)C1N=[N+]=[N-]` (stereo unspecified) returned a TGI of over 100 µM.

`COc1ccc2ccc3c(c2c1)CN1CCc2cc(OC)c(OC)cc2C1C3` (stereo unspecified): the TGI is 96.8 µM.

`OCCC1(O)CCC(O)CC1` (stereo unspecified) gave a TGI of over 100 µM.

For the compound `CCCCNC1=C(C(=O)OCC)C(=O)CO1`, the TGI was over 100 µM.

`CC(C)CC(=O)[O-].CC(C)CC(=O)[O-].N.N.N.N.[Co+3].[O-][Cl+3]([O-])([O-])[O-]`: the GI50 is over 100 µM and the TGI was over 100 µM.

Compound `COc1cc(C2c3cc4c(cc3C(NCC(O)CO)C3COC(=O)[C@H]23)OCO4)cc(OC)c1OC` (stereo partly specified) yielded a TGI of over 100 µM.

With `CCCCN(CCCC)C(=O)C(=O)C(C#N)c1ccc(C)cc1` (stereo unspecified), the TGI is over 100 µM.

In turn, `Cc1ccc(S(=O)(=O)C(CC(=O)N2CCCC2)C(=O)c2ccccc2)cc1` (stereo unspecified) showed a TGI of over 100 µM.

As to `CC1(C)CC(/C=C2/OC(=O)c3ccccc32)=C(C#N)C(=O)O1`, the TGI is over 100 µM.
